Results reported in patent US11480877B2, “Resist composition, method for forming resist pattern, and polyphenol compound used therein” (Mitsubishi Gas Chemical Company, Inc., priority 2015, dated 2022).

Experiment: Safe solvent solubility test of compound
Assay type: physicochemical
Conditions: for Solubility in CHN (amount of dissolution) / Solubility in PGME (amount of dissolution) / Solubility in PGME A (amount of dissolution): 23° C., ultrasonic waves 30 minutes, visual observation; for Solubility in PGME A (amount of dissolution) / Solubility in safe solvents (in words): PGMEA; for Solubility in safe solvents (in words): safe solvents PGME; for Solubility in CHN (amount of dissolution) / Solubility in safe solvents (in words): CHN
Protocol: The solubilities of the compound in PGME, PGMEA, and CHN were evaluated according to the following criteria utilizing the amount of dissolution in each solvent. The amount of dissolution was measured at 23° C. by precisely weighing the compound into a test tube, adding a subject solvent so as to attain a predetermined concentration, applying ultrasonic waves for 30 minutes in an ultrasonic cleaner, and visually observing the subsequent state of the fluid.
A: 5.0% by mass≤Amount of dissolution
B: 2.0% by mass≤Amount of dissolution<5.0% by mass
C: Amount of dissolution<2.0% by mass • (2) Storage Stability and Thin Film Formability of Resist Composition

Solubility in CHN (amount of dissolution)	Solubility in PGME (amount of dissolution)	Solubility in PGME A (amount of dissolution)	Solubility in safe solvents (in words)	Compound
A (5.0% by mass ≤ Amount of dissolution)	A (5.0% by mass ≤ Amount of dissolution)	A (5.0% by mass ≤ Amount of dissolution)	–	Oc1ccc2c3c(ccc2c1)Oc1ccc2cc(O)ccc2c1C3c1ccc(-c2ccccc2)cc1 [Production Example 1, reference compound]
A (5.0% by mass ≤ Amount of dissolution)	A (5.0% by mass ≤ Amount of dissolution)	A (5.0% by mass ≤ Amount of dissolution)	high solubility	Oc1ccc2c3c(ccc2c1)Oc1ccc2cc(O)ccc2c1C3c1cccc(I)c1 [Synthesis Example 1]
A (5.0% by mass ≤ Amount of dissolution)	A (5.0% by mass ≤ Amount of dissolution)	A (5.0% by mass ≤ Amount of dissolution)	high solubility	Oc1ccc2c3c(ccc2c1)Oc1ccc2cc(O)ccc2c1C3c1ccc(I)cc1 [Synthesis Example 2]
A (5.0% by mass ≤ Amount of dissolution)	A (5.0% by mass ≤ Amount of dissolution)	A (5.0% by mass ≤ Amount of dissolution)	high solubility	COc1cc(C2c3c(ccc4cc(O)ccc34)Oc3ccc4cc(O)ccc4c32)cc(I)c1O [Synthesis Example 3]
A (5.0% by mass ≤ Amount of dissolution)	A (5.0% by mass ≤ Amount of dissolution)	C (Amount of dissolution <2.0% by mass)	high solubility	Oc1ccc2ccc3c(c2c1)C(c1ccc(I)cc1)c1c(ccc2ccc(O)cc12)O3 [Synthesis Example 5]
A (5.0% by mass ≤ Amount of dissolution)	A (5.0% by mass ≤ Amount of dissolution)	A (5.0% by mass ≤ Amount of dissolution)	high solubility	COc1cc(C2c3c(ccc4ccc(O)cc34)Oc3ccc4ccc(O)cc4c32)cc(I)c1O [Synthesis Example 6]

Compound	Solubility in CHN (amount of dissolution)	Solubility in PGME (amount of dissolution)	Solubility in PGME A (amount of dissolution)	Solubility in safe solvents (in words)
Oc1ccc2ccc3c(c2c1)C(c1cccc(I)c1)c1c(ccc2ccc(O)cc12)O3 [Synthesis Example 4]	B (2.0% by mass ≤ Amount of dissolution <5.0% by mass)	A (5.0% by mass ≤ Amount of dissolution)	A (5.0% by mass ≤ Amount of dissolution)	high solubility
